Test results published in ChEMBL document CHEMBL4507269, “Data for DCP probe BAY-386” (2021).

Experiments:
[1] = target: Ribosomal protein S6 kinase alpha-3 (Homo sapiens) (UniProt P51812); settings: Compound concentration 1000.0 nM
[2] = target: Kappa-type opioid receptor (Homo sapiens) (UniProt P41145); test: kappa(KOP) (h) Eurofins-Cerep Cellular and Nuclear Receptor Functional Assays; settings: Compound concentration 10.0 uM
Platelet [3] = test: Inhibition of platelet aggregation (human plasma, ADP, Collagen); format: cell-based
[4] = target: Glucocorticoid receptor (Homo sapiens) (UniProt P04150); test: Glucocorticoid Eurofins-Panlabs radioligand binding assay; settings: Compound concentration 10.0 uM
[5] = target: Sodium-dependent noradrenaline transporter (Homo sapiens) (UniProt P23975); settings: Compound concentration 10.0 uM
Homo sapiens = species on record: Homo sapiens; test: Inhibition of Nicotinic Acetylcholine at compound concentration of 10.0 uM in the Eurofins-Panlabs radioligand binding assay (Eurofins_assay_258590); format: protein-complex assay; settings: Compound concentration 10.0 uM
[6] = target: Acetylcholine receptor subunit alpha (Homo sapiens) (UniProt P02708); test: Inhibition of Nicotinic Acetylcholine […], Bungarotoxin at 10 µM in the Eurofins-Panlabs radioligand binding assay (Eurofins_assay_258700); settings: Compound concentration 10.0 uM
[7] = target: G protein-coupled receptor kinase 4 (Homo sapiens) (UniProt P32298); settings: Compound concentration 1000.0 nM
Sequence of G protein-coupled receptor kinase 4 (Homo sapiens) (P32298 whole entry, looked up): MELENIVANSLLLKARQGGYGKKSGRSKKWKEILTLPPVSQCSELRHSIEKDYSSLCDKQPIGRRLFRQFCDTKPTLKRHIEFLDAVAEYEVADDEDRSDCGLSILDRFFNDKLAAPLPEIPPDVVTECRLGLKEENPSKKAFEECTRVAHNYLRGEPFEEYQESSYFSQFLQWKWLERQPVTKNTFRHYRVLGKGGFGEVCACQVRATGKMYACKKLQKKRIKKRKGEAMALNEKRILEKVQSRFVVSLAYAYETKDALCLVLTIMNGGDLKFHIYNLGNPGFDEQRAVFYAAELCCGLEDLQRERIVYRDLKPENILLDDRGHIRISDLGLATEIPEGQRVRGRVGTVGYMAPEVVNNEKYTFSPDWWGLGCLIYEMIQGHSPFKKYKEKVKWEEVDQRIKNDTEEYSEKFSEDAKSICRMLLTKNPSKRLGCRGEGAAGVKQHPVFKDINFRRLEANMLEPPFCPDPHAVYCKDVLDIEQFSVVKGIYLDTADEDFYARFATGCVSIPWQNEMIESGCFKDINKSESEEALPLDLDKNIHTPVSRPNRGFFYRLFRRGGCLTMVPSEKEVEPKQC

[8] = target: GABA-A receptor; anion channel (Rattus norvegicus) (UniProt O09028+P15431+P18506+P18508+P19969+P20236+P23574+P23576+P28471+P28473+P30191+P62813+P63079+P63138+Q91ZM7+Q9ES14); settings: Compound concentration 10.0 uM
[9] = target: Purinergic P2Y (Rattus norvegicus) (UniProt O35811+Q9EPX4+P49651+Q63371+P41232+O35881+Q6GUG4); settings: Compound concentration 10.0 uM
[10] = target: Glutamate receptor ionotropic, kainate (Rattus norvegicus) (UniProt P22756+Q01812+P42260+P42264+Q63273); test: Inhibition of Glutamate, Kainate at 10 µM in the Eurofins-Panlabs radioligand binding assay (Eurofins_assay_232700); settings: Compound concentration 10.0 uM
Mus musculus = species on record: Mus musculus; test: Inhibition of Phorbol Ester at 10 µM in the Eurofins-Panlabs radioligand binding assay (Eurofins_assay_264500); parameters: ligand concentration 3 nM; settings: Compound concentration 10.0 uM
hERG (KCNH2) = hERG (KCNH2) (Homo sapiens, UniProt Q12809); test: Inhibition of Potassium Channel hERG at 10 µM in the Eurofins-Panlabs radioligand binding assay (Eurofins_assay_265900); parameters: ligand concentration 1.5 nM, non-specific ligand with concentration Astemizole, incubation time 60 min, incubation temperature 25 °C; settings: HEK-293 cells that express human recombinant hERG, probe [3H] Astemizole, compound concentration 10 uM
[11] = target: Histamine H3 receptor (Homo sapiens) (UniProt Q9Y5N1); test: Histamine H3 Eurofins-Panlabs radioligand binding assay; settings: Compound concentration 10.0 uM
[12] = target: Histamine H2 receptor (Homo sapiens) (UniProt P25021); settings: Compound concentration 10.0 uM
[13] = target: Sigma non-opioid intracellular receptor 1 (Homo sapiens) (UniProt Q99720); test: Inhibition of Sigma 1 at 10 µM in the Eurofins-Panlabs radioligand binding assay (Eurofins_assay_278110); parameters: ligand concentration 8 nM; settings: Compound concentration 10.0 uM
[14] = target: T1, Adenosine receptor A2b (Homo sapiens) (UniProt P29275); test: A2B (h) Eurofins-Cerep Cellular and Nuclear Receptor Functional Assays; settings: Compound concentration 10.0 uM
T1 sequence (whole entry): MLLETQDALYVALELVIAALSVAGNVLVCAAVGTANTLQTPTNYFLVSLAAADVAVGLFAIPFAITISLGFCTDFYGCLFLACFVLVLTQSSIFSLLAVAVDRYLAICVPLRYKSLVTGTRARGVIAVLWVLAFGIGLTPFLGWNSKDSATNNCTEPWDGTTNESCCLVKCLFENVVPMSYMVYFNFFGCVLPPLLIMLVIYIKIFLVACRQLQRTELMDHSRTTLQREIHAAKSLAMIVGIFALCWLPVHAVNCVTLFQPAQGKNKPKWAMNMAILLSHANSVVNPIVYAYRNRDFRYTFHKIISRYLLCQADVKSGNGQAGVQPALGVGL

[15] = target: Cannabinoid receptor 1 (Homo sapiens) (UniProt P21554); settings: Compound concentration 10.0 uM
[16] = target: Histamine H1 receptor (Homo sapiens) (UniProt P35367); settings: Compound concentration 10.0 uM
[17] = target: Melatonin receptor type 1A (Homo sapiens) (UniProt P48039); test: Inhibition of Melatonin MT1 at 10 µM in the Eurofins-Panlabs radioligand binding assay (Eurofins_assay_251600); parameters: ligand concentration 0.05 nM; settings: Compound concentration 10.0 uM
[18] = target: Serine/threonine-protein kinase RIO2 (Homo sapiens) (UniProt Q9BVS4); settings: Compound concentration 1000.0 nM
Sequence of Serine/threonine-protein kinase RIO2 (Homo sapiens) (Q9BVS4 whole entry, looked up): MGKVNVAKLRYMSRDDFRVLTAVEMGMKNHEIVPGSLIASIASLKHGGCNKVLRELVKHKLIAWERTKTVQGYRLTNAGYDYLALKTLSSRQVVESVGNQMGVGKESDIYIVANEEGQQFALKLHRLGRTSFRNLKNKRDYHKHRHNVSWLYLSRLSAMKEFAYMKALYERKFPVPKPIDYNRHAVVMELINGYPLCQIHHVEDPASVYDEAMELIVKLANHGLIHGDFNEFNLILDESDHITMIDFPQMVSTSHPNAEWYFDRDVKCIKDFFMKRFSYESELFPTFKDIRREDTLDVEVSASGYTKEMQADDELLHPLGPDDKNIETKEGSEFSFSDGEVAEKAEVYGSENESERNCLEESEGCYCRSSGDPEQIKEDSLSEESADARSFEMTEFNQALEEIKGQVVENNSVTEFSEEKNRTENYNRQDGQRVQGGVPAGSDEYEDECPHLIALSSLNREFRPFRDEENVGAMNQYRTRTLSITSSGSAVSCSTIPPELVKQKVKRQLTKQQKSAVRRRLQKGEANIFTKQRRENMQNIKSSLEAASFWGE

[19] = target: Non-receptor tyrosine-protein kinase TYK2 (Homo sapiens) (UniProt P29597); settings: Compound concentration 1000.0 nM
Sequence of Non-receptor tyrosine-protein kinase TYK2 (Homo sapiens) (P29597 whole entry): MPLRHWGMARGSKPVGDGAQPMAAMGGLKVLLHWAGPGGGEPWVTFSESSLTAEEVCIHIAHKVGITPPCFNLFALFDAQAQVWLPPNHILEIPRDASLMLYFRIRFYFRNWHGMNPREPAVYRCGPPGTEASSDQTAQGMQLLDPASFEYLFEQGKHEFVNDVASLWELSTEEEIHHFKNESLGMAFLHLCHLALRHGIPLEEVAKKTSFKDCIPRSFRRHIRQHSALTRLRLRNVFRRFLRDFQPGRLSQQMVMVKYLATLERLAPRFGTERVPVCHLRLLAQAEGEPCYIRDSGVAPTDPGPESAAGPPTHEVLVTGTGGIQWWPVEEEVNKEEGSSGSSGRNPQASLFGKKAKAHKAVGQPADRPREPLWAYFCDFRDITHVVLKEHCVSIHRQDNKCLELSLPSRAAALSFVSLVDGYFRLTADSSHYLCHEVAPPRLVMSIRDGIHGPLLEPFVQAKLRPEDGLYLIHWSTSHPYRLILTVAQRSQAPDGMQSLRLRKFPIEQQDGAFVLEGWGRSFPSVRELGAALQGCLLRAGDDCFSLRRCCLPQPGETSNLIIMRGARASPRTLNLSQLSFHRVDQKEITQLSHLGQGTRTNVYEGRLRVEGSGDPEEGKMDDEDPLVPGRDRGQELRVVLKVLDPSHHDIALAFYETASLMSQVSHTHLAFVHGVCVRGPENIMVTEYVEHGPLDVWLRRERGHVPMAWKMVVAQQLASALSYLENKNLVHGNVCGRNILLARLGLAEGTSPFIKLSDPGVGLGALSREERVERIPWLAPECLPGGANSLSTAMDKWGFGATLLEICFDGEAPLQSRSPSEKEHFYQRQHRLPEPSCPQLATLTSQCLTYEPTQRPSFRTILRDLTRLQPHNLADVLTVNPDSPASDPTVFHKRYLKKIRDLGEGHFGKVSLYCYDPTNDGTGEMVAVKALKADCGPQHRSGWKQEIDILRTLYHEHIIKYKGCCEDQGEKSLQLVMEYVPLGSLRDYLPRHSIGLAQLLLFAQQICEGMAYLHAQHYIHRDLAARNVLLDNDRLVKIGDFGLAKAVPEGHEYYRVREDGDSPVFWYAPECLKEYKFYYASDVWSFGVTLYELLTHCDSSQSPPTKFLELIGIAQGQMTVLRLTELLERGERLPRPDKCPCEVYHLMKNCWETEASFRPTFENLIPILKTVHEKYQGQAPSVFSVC

[20] = target: Epidermal growth factor receptor (Homo sapiens) (UniProt P00533); test: Inhibition of Epidermal Growth Factor (EGF) at 10 µM in the Eurofins-Panlabs radioligand binding assay (Eurofins_assay_225510); settings: Compound concentration 10.0 uM
[21] = target: Sodium-dependent noradrenaline transporter (Homo sapiens) (UniProt P23975); settings: Compound concentration 10.0 uM; remark: listed apart in the source
Platelet [22] = test: Inhibition of platelet aggregation (human plasma, thrombin); format: cell-based
[23] = target: Serine/threonine-protein kinase BRSK1 (Homo sapiens) (UniProt Q8TDC3); settings: Compound concentration 1000.0 nM
Sequence of Serine/threonine-protein kinase BRSK1 (Homo sapiens) (Q8TDC3 whole entry): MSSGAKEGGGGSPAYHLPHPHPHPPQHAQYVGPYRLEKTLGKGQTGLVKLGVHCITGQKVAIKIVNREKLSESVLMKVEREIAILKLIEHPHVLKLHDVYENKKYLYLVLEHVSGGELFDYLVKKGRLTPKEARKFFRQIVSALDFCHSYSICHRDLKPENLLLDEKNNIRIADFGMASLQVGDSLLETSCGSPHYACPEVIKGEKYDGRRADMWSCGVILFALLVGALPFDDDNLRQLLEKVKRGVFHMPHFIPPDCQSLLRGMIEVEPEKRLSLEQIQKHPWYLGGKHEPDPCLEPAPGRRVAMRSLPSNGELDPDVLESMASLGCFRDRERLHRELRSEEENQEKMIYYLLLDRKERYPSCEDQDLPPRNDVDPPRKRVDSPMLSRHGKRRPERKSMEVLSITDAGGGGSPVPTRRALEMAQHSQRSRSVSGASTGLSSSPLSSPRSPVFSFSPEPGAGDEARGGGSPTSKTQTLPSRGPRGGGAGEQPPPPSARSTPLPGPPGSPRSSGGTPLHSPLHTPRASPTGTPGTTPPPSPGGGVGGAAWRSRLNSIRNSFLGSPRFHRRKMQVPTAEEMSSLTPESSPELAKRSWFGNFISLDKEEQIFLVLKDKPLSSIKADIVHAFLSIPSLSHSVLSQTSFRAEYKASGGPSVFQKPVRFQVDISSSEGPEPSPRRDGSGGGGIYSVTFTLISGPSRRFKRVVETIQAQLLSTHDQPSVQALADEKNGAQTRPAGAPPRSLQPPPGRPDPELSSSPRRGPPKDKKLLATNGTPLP

[24] = target: D(2) dopamine receptor (Homo sapiens) (UniProt P14416); settings: Compound concentration 10.0 uM
[25] = target: Phosphatidylinositol 4,5-bisphosphate 3-kinase catalytic subunit beta isoform (Homo sapiens) (UniProt P42338); settings: Compound concentration 1000.0 nM
Sequence of Phosphatidylinositol 4,5-bisphosphate 3-kinase catalytic subunit beta isoform (Homo sapiens) (P42338 whole entry, looked up, canonical isoform): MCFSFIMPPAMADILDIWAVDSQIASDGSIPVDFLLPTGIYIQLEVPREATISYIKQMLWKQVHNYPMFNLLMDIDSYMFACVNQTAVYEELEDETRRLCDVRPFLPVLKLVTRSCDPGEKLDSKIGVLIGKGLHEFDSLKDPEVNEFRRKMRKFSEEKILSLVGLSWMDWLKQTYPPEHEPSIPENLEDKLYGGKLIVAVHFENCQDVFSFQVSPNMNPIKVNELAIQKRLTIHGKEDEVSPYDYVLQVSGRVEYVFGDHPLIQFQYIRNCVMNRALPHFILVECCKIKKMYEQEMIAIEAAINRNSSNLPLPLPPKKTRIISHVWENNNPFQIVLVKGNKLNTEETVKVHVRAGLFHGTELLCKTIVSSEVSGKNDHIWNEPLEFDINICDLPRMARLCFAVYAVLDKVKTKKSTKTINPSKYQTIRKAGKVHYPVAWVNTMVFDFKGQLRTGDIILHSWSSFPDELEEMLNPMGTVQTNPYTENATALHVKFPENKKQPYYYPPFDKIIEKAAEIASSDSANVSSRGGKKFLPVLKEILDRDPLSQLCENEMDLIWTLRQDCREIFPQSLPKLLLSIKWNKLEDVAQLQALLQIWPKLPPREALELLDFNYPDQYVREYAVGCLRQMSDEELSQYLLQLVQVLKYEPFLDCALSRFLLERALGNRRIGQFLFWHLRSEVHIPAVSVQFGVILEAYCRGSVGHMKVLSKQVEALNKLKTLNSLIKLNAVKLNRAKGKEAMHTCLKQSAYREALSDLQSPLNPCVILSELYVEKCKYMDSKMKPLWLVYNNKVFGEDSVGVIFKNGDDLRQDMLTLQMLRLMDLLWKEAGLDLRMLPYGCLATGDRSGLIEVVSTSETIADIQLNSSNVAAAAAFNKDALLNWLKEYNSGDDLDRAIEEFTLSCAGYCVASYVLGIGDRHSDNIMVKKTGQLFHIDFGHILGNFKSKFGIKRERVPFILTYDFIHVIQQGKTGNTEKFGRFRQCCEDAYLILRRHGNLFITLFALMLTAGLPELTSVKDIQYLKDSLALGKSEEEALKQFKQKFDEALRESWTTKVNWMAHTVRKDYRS

[26] = target: Platelet-activating factor receptor (Homo sapiens) (UniProt P25105); test: Inhibition of Platelet Activating Factor (PAF) at 10 µM in the Eurofins-Panlabs radioligand binding assay (Eurofins_assay_265010); settings: Compound concentration 10.0 uM
[27] = target: Sigma intracellular receptor 2 (Homo sapiens, UniProt Q5BJF2); test: GPCRScan assay: inhibition of Sigma 2; parameters: radioligand conc. used [nm] 5.0, parental cells HEKT
[28] = target: Glutamate NMDA receptor (Rattus norvegicus) (UniProt P35439+Q00959+Q00960+Q00961+Q62645+Q8VHN2+Q9R1M7); settings: Compound concentration 10.0 uM
[29] = target: 5-hydroxytryptamine receptor 1E (Homo sapiens) (UniProt P28566); settings: Compound concentration 10.0 uM
[30] = target: Mu-type opioid receptor (Homo sapiens) (UniProt P35372); test: mu (MOP) (h) Eurofins-Cerep Cellular and Nuclear Receptor Functional Assays; settings: Compound concentration 10.0 uM
Sequence of Mu-type opioid receptor (Homo sapiens) (P35372 whole entry): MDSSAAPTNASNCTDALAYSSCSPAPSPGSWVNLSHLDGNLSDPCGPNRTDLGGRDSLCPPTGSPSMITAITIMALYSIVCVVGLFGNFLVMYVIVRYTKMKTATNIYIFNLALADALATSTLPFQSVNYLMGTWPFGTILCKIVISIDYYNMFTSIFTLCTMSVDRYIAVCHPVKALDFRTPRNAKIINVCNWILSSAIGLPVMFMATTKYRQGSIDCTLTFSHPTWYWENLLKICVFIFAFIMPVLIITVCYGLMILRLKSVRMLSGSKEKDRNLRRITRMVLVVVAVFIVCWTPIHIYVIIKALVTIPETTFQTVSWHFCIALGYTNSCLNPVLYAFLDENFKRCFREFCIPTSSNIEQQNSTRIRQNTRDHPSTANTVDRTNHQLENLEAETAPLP

Platelet [31] = test: Inhibition of platelet aggregation (human plasma, TRAP-6); format: cell-based

Sequence of Kappa-type opioid receptor (Homo sapiens) (P41145 whole entry): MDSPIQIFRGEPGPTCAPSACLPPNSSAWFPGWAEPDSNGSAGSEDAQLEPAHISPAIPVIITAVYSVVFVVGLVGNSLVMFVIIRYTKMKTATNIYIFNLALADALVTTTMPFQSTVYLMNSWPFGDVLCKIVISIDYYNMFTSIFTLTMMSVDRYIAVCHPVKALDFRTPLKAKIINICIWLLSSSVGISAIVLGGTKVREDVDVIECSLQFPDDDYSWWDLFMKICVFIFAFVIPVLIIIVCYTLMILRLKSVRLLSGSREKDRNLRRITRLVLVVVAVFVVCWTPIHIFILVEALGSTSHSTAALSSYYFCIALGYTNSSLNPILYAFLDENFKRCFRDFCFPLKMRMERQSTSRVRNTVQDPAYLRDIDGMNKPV

O=C(N1CCS(=O)(=O)CC1)N1C[C@H](c2ccc(OC(F)(F)F)cc2)C[C@H](c2nc(C3CC3)no2)C1 [BAY-386]
residual activity [1]: 100% | % Inhibition of Control Agonist Response (Mean n=2) [2]: 4.5% | % of Control Agonist Response (Mean n=2) [2]: 20.6% | IC50 (Platelet [3]): > 100 µM (not active) | inhibition [4]: 9% | inhibition [5]: -1.24% | inhibition (Homo sapiens): -4% | inhibition [6]: -2% | residual activity [7]: 100% | inhibition [8]: -3% | inhibition [9]: 12% | inhibition [10]: 15% | inhibition (Mus musculus): 5% | inhibition at 60 min, 10 µM (hERG (KCNH2)): 22% (not active) | inhibition [11]: -3% | inhibition [12]: 9.25% | inhibition [13]: 16% | % Inhibition of Control Agonist Response (Mean n=2) [14]: -0.3% | % of Control Agonist Response (Mean n=2) [14]: 3.5% | inhibition [15]: 88% | inhibition [16]: 0% | inhibition [17]: 14% | residual activity [18]: 100% | residual activity [19]: 94% | inhibition [20]: -7% | inhibition [21]: 17% | IC50 (Platelet [22]): 0.14 µM | residual activity [23]: 100% | inhibition [24]: 1% | residual activity [25]: 66% | inhibition [26]: 0% | Ki ([27]; read-out: Ki): 1.2 µM | Ki ([27]; read-out: pKi (converted)): 1.15 µM | inhibition [28]: -2%

Cc1noc([C@H]2C[C@@H](c3ccc(C(F)(F)F)cc3)CN(C(=O)N3CCS(=O)(=O)C3)C2)n1 [BAY-448]
inhibition [29]: 21.5% | residual activity [1]: 100% | % Inhibition of Control Agonist Response (Mean n=2) [30]: -4.8% | % of Control Agonist Response (Mean n=2) [30]: 36% | residual activity [7]: 99% | % Inhibition of Control Agonist Response (Mean n=2) [14]: -8.5% | % of Control Agonist Response (Mean n=2) [14]: 1.5% | residual activity [18]: 100% | residual activity [19]: 100% | IC50 (Platelet [31]): > 10 µM (not active) | residual activity [23]: 100% | residual activity [25]: 99%
